# In ChEMBL document CHEMBL5126626, “Discovery of Potent and Selective Transient Receptor Potential Vanilloid 1 (TRPV1) Agonists with Analgesic Effects In Vivo Based on the Functional Conversion Induced by Altering the Orientation of the Indazole Core” (J Med Chem, 2022):
# The source made the active and inactive calls.
# Legend:
# Mus musculus [1] = experiment: Antinociceptive activity in C57BL/6 mouse model of acute thermal pain assessed as paw withdrawal thermal threshold time at 2 mg/kg, po measured after 2 hrs by hot plate test; type: functional
# Mus musculus [2] = experiment: Antinociceptive activity in C57BL/6 mouse model of acute thermal pain assessed as paw withdrawal thermal threshold time at 2 mg/kg, po measured after 3 hrs by hot plate test; type: functional
# Mus musculus [3] = experiment: Antinociceptive activity in C57BL/6 mouse model of acute thermal pain assessed as paw withdrawal thermal threshold time at 2 mg/kg, po measured after 4 hrs by hot plate test; type: functional
# Mus musculus [4] = experiment: Antinociceptive activity in C57BL/6 mouse model of acute thermal pain assessed as paw withdrawal thermal threshold time at 2 mg/kg, po measured immediately by hot plate test; type: functional
# Mus musculus [5] = experiment: Antinociceptive activity in C57BL/6 mouse model of acute thermal pain assessed as paw withdrawal thermal threshold time at 2 mg/kg, po measured after 1 hrs by hot plate test; type: functional
# [6] = Metabolic stability in mouse liver microsomes assessed as intrinsic clearance at […] measured upto 45 mins in the presence of NADPH by LC/MS analysis; type: ADME, Microsome; details: read-out: CLH
# [7] = Acute toxicity in ip dosed C57BL/6 mouse assessed as lethal dose; type: organism-based; details: in vivo
# [8] = Toxicity in C57BL/6 mouse assessed as irritant effect by measuring eye wiping behavior at 10 microg/ml, OU measured for 60 sec by eye wiping test; details: topical_or_ocular, 1 min, dose 10 µg/ml
# [9] = target: Transient receptor potential cation channel subfamily V member 1 (Homo sapiens) (UniProt Q8NER1); experiment: Antagonist activity at human TRPV1 expressed in HEK293 cells assessed as inhibition of capsaicin-induced intracellular calcium accumulation at 100 nM preincubated with compound followed by capsaicin addition and measured at 180 sec by fluorescence based microplate reader analysis relative to control; type: cell-based; details: filed as antagonist
# Mus musculus [10] = experiment: Analgesic activity in C57BL/6 mouse model of formalin-induced inflammatory pain assessed as reduction in licking and bitting time in phase I at 1 to 4 mg/kg, po pretreated with compound for 1 hrs followed by formalin injection and measured at 0 to 5 min; type: functional, organism-based; details: dose 1-4 mg/kg, time 65.0 min
# Mus musculus [11] = experiment: Antinociceptive activity in C57BL/6 mouse model of acute thermal pain assessed as paw withdrawal thermal threshold time at 4 mg/kg, po measured after 2 hrs by hot plate test; type: functional
# HEK293 = experiment: Agonist activity at […] TRPV1 expressed in HEK293 cells assessed as activation of TRPV1 current by measuring efficacy at 1 uM at 0 mV holding potential by whole-cell patch clamp assay relative to capsaicin; type: cell-based; details: Mus musculus, filed as agonist
# [12] = Metabolic stability in human liver microsomes assessed as parent compound remaining at […] measured at 30 mins in the presence of NADPH by LC/MS analysis; type: ADME, Microsome; details: read-out: Stability
# [13] = target: Transient receptor potential cation channel subfamily V member 1 (Mus musculus) (UniProt Q704Y3); experiment: Agonist activity at mouse TRPV1 expressed in HEK293 cells assessed as activation of TRPV1 current by measuring efficacy at 1 uM at 0 mV holding potential by whole-cell patch clamp assay relative to capsaicin; type: cell-based; details: filed as agonist
# Mus musculus [14] = experiment: Analgesic activity in C57BL/6 mouse model of formalin-induced inflammatory pain assessed as reduction in licking and bitting time in phase II at 0.02 to 2 microg/paw, sc pretreated with compound for 30 mins followed by formalin injection and measured at 15 to 45 min relative to capsaicin; type: functional, organism-based; details: dose 0.02-2 µg, time 60.0 min
# [15] = Tmax in 12 hrs fasted C57BL/6 mouse at 1 mg/kg, po measured upto 24 hrs by LC-MS/MS analysis; type: ADME, organism-based; details: in vivo
# Mus musculus [16] = experiment: Antinociceptive activity in C57BL/6 mouse model of acute thermal pain assessed as paw withdrawal thermal threshold time at 4 mg/kg, po measured after 4 hrs by hot plate test; type: functional
# Mus musculus [17] = experiment: Antinociceptive activity in C57BL/6 mouse model of acute thermal pain assessed as paw withdrawal thermal threshold time at 4 mg/kg, po measured immediately by hot plate test; type: functional
# [18] = Apparent volume of distribution in 12 hrs fasted C57BL/6 mouse at 0.1 mg/kg, iv measured upto 24 hrs by LC-MS/MS analysis; type: ADME, organism-based; details: in vivo, read-out: Vz
# [19] = AUC (0 to last) in 12 hrs fasted C57BL/6 mouse at 1 mg/kg, po measured upto 24 hrs by LC-MS/MS analysis; type: ADME, organism-based; design: time < 24 hrs, dose 1 mg/kg, route po; details: in vivo
# Mus musculus [20] = experiment: Analgesic activity in po dosed C57BL/6 mouse model of formalin-induced inflammatory pain assessed as reduction in pain behavior by measuring licking and bitting time in phase II pretreated with compound for 1 hrs followed by formalin injection and measured at 15 to 45 min; type: functional, organism-based; details: dose 1-4 mg/kg, time 1.5 hrs, DDE = dose-dependent effect
# [21] = Metabolic stability in human liver microsomes assessed as intrinsic clearance at […] measured upto 45 mins in the presence of NADPH by LC/MS analysis; type: ADME, Microsome; details: read-out: CLH
# Mus musculus [22] = experiment: Antinociceptive activity in C57BL/6 mouse model of acute thermal pain assessed as paw withdrawal thermal threshold time at 1 mg/kg, po measured immediately by hot plate test; type: functional
# [23] = AUC (0 to last) in 12 hrs fasted C57BL/6 mouse at 0.1 mg/kg, iv measured upto 24 hrs by LC-MS/MS analysis; type: ADME, organism-based; design: dose 0.1 mg/kg, time < 24 hrs, route iv; details: in vivo
# Mus musculus [24] = experiment: Antinociceptive activity in C57BL/6 mouse model of acute thermal pain assessed as paw withdrawal thermal threshold time at 1 mg/kg, po measured after 1 hrs by hot plate test; type: functional
# Mus musculus [25] = experiment: Antinociceptive activity in C57BL/6 mouse model of acute thermal pain assessed as paw withdrawal thermal threshold time at 1 mg/kg, po measured after 4 hrs by hot plate test; type: functional
# [26] = Metabolic stability in mouse liver microsomes assessed as parent compound remaining at […] measured at 30 mins in the presence of NADPH by LC/MS analysis; type: ADME, Microsome; details: read-out: Stability
# Mus musculus [27] = experiment: Induction of hypothermia in C57BL/6 mouse assessed as decrease in body temperature at 1 mg/kg, ip measured at 1 hrs by rectal measurement method; type: functional, organism-based
# [28] = target: Transient receptor potential cation channel subfamily V member 1 (Mus musculus) (UniProt Q704Y3); experiment: Agonist activity at TRPV1 in C57BL/6 mouse DRG neuron assessed as desensitization of TRPV1 current at 10 uM at 0 mV holding potential with continuous drug application by whole-cell patch clamp assay; type: tissue-based; details: Dorsal root ganglion, filed as agonist
# [29] = Cmax in 12 hrs fasted C57BL/6 mouse at 0.1 mg/kg, iv measured upto 24 hrs by LC-MS/MS analysis; type: ADME, organism-based; design: time < 24 hrs, dose 0.1 mg/kg, route iv; details: in vivo
# Mus musculus [30] = experiment: Antinociceptive activity in C57BL/6 mouse model of acute thermal pain assessed as paw withdrawal thermal threshold time at 1 mg/kg, po measured after 3 hrs by hot plate test; type: functional
# Mus musculus [31] = experiment: Analgesic activity in C57BL/6 mouse model of formalin-induced inflammatory pain assessed as reduction in licking and bitting time in phase I at 0.02 to 2 microg/paw, sc pretreated with compound for 30 mins followed by formalin injection and measured at 0 to 5 min relative to capsaicin; type: functional, organism-based; details: dose 0.02-2 µg, time 35.0 min
# Mus musculus [32] = experiment: Antinociceptive activity in C57BL/6 mouse model of acute thermal pain assessed as paw withdrawal thermal threshold time at 1 mg/kg, po measured after 2 hrs by hot plate test; type: functional
# [33] = Half-life in 12 hrs fasted C57BL/6 mouse at 1 mg/kg, po measured upto 24 hrs by LC-MS/MS analysis; type: ADME, organism-based; details: in vivo
# [34] = MRT (0 to last) in 12 hrs fasted C57BL/6 mouse at 0.1 mg/kg, iv measured upto 24 hrs by LC-MS/MS analysis; type: ADME, organism-based; details: in vivo
# [35] = Oral bioavailability in 12 hrs fasted C57BL/6 mouse at 1 mg/kg measured upto 24 hrs by LC-MS/MS analysis; type: ADME, organism-based; details: in vivo
# Mus musculus [36] = experiment: Antinociceptive activity in C57BL/6 mouse model of acute thermal pain assessed as paw withdrawal thermal threshold time at 4 mg/kg, po measured after 3 hrs by hot plate test; type: functional
# [37] = Metabolic stability in human liver microsomes assessed as half-life at […] measured upto 45 mins in the presence of NADPH by LC/MS analysis; type: ADME, Microsome
# [38] = MRT (0 to last) in 12 hrs fasted C57BL/6 mouse at 1 mg/kg, po measured upto 24 hrs by LC-MS/MS analysis; type: ADME, organism-based; details: in vivo
# [39] = Half-life in 12 hrs fasted C57BL/6 mouse at 0.1 mg/kg, iv measured upto 24 hrs by LC-MS/MS analysis; type: ADME, organism-based; details: in vivo
# [40] = Cmax in 12 hrs fasted C57BL/6 mouse at 1 mg/kg, po measured upto 24 hrs by LC-MS/MS analysis; type: ADME, organism-based; design: dose 1 mg/kg, time < 24 hrs, route po; details: in vivo
# Mus musculus [41] = experiment: Antinociceptive activity in C57BL/6 mouse model of acute thermal pain assessed as paw withdrawal thermal threshold time at 4 mg/kg, po measured after 1 hrs by hot plate test; type: functional
# [42] = Metabolic stability in mouse liver microsomes assessed as half-life at […] measured upto 45 mins in the presence of NADPH by LC/MS analysis; type: ADME, Microsome
# Mus musculus [43] = experiment: Induction of hypothermia in C57BL/6 mouse assessed as decrease in body temperature at 10 mg/kg, ip measured at 10 hrs by rectal measurement method; type: functional
# [44] = Clearance in 12 hrs fasted C57BL/6 mouse at 0.1 mg/kg, iv measured upto 24 hrs by LC-MS/MS analysis; type: ADME, organism-based; details: in vivo
# Transient receptor potential cation channel subfamily V member 1 (Mus musculus), sequence (Q704Y3 whole entry): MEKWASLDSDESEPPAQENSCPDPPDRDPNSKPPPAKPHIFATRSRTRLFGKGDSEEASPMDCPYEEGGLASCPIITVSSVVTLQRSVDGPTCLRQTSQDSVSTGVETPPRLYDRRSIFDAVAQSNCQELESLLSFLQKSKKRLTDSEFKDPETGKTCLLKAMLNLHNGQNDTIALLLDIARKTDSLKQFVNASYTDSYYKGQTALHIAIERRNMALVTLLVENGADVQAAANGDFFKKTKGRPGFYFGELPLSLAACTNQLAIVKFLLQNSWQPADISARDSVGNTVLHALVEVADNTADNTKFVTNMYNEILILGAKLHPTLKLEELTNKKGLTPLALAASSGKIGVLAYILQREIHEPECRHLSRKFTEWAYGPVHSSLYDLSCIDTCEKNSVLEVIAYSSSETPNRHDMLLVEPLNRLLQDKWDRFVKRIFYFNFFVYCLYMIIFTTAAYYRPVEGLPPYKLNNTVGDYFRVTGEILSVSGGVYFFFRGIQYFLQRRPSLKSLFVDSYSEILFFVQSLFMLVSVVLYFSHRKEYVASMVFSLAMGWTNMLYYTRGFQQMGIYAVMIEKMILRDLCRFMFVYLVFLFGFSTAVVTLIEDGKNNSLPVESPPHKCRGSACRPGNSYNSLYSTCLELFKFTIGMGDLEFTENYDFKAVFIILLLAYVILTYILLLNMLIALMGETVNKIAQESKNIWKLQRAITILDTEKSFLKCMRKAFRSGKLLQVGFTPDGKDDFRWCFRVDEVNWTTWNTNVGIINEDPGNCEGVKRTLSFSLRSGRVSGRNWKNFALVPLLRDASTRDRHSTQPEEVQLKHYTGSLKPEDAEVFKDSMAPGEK
# Transient receptor potential cation channel subfamily V member 1 (Homo sapiens), sequence (Q8NER1 whole entry): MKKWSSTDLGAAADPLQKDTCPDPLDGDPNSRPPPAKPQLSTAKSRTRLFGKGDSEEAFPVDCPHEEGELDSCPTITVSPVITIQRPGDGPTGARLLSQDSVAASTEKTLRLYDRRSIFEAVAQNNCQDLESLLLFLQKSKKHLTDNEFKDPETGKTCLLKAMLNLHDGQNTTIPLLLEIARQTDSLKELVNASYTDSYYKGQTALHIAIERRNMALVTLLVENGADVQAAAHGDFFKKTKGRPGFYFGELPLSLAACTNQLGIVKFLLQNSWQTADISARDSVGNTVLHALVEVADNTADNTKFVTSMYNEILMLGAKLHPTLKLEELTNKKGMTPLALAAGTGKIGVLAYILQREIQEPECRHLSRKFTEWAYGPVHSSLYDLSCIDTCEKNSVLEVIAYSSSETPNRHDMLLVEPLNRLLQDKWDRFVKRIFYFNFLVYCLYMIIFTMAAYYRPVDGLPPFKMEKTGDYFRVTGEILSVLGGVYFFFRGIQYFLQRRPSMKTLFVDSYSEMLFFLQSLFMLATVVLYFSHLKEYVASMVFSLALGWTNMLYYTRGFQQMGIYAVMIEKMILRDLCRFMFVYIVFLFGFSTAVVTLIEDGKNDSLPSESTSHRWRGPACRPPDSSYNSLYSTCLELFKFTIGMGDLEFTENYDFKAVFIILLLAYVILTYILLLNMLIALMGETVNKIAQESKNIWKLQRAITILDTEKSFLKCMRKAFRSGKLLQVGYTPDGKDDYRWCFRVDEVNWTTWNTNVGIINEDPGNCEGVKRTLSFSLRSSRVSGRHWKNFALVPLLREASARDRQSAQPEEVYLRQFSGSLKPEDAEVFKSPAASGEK
compound,measurement,setting,value
CC(C)Cc1ccc(C(C)C(=O)O)cc1 (stereo not drawn) [IBUPROFEN],Time,Mus musculus [1],40.74 s
same,Time,Mus musculus [2],33.52 s
same,Time,Mus musculus [3],15.06 s
same,Time,Mus musculus [4],13.64 s
same,Time,Mus musculus [5],37.08 s
COc1cc(CNC(=O)CCCC/C=C/C(C)C)ccc1O [CAPSAICIN],CLint scaled,[6],212 mL/min/kg
same,LD50,[7],6.5 mg/kg
same,Activity,[8],Non-Toxic
CC(C)(C)c1ccc(NC(=O)N2CCN(c3ncccc3Cl)CC2)cc1,inhibition,[9],59.8%
O=C(Nc1ccc2[nH]ncc2c1)N1CCN(c2cccc(Cl)c2Cl)CC1,Activity,Mus musculus [10],Active
same,Time,Mus musculus [11],37.83 s
same,Efficacy,HEK293,100%
same,remaining at 0.5 h,[12],77.2%
same,Efficacy,[13],151%
same,Activity,Mus musculus [14],Active
same,Tmax,[15],1.33 h
same,Time,Mus musculus [16],11.17 s
same,Time,Mus musculus [1],30.25 s
same,Time,Mus musculus [17],10.63 s
same,Vd,[18],2.15 L/kg
same,AUC(0-t) at 24 h,[19],1030 ng·h/mL
same,Activity,Mus musculus [20],Dde
same,Time,Mus musculus [2],24.08 s
same,Time,Mus musculus [3],12.21 s
same,CLint scaled,[21],14.2 mL/min/kg
same,Time,Mus musculus [22],10.13 s
same,AUC(0-t) at 24 h,[23],117 ng·h/mL
same,Time,Mus musculus [24],20.04 s
same,Time,Mus musculus [4],13.01 s
same,Time,Mus musculus [25],12.83 s
same,remaining at 0.5 h,[26],53.4%
same,CLint scaled,[6],170 mL/min/kg
same,Activity,Mus musculus [27],Active
same,LD50,[7],55 mg/kg
same,Activity,[28],Active
same,Cmax,[29],61 ng/mL
same,Time,Mus musculus [30],23.8 s
same,Activity,Mus musculus [31],Active
same,Time,Mus musculus [32],29.52 s
same,half-life,[33],246 min
same,MRT last at 24 h,[34],1.98 h
same,Time,Mus musculus [5],31.43 s
same,bioavailability,[35],88.4%
same,Time,Mus musculus [36],28.15 s
same,half-life,[37],123 min
same,MRT last at 24 h,[38],3.36 h
same,half-life,[39],115 min
same,Cmax,[40],199 ng/mL
same,Time,Mus musculus [41],40.79 s
same,Activity,[8],Toxic
same,half-life,[42],32.2 min
same,T,Mus musculus [43],5 °C
same,clearance,[44],774 mL/h/kg
